The supplement of paper PMC11208160

assay: recombinant UMI read abundance after kanamycin selection (control-corrected) (log10(CPM+1)); higher = more efficient recombination; extreme values may be limits of the assay; sequences stand for … in AGTGCAGAGAAAATCGGCCAGTTTTCTCTGCCTGCAGTCCGCATGCCGTGGGACCCCTTGGGTTCTAACCTGTTGCCTAGATTTATGCAGCGGACTGCCTTTCTCCCAAAGTGATAAACCGG…AGGTTGGTTTCACT; site = the 11-nt donor
Method: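 Pooled E. coli donor-specificity screen for the IS621 bridge recombinase. Each library member carries a reprogrammed 11-nt donor and a full-length LE bridge RNA expressed in cis from the natural promoter, with a paired donor-binding loop (8-nt LDG + 4-nt RDG) and a target-binding loop fixed to T5. It is co-electroporated with a T5 target plasmid; recombinase is induced with 0.07 mM IPTG and recombinants are selected on kanamycin. UMIs are counted as CPM, averaged over two biological replicates and corrected by the unselected control. Molecule = full bridge RNA written as DNA, built from the T5 scaffold: LDG = donor specificity nt 1-8, RDG = reverse complement of nt 8-11.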
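Note: IS621 bridge recombinase in Escherichia coli cells against a fixed T5 target plasmid.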

Sequence	recombinant UMI read abundance (log10)
AATTATGCATGGACCGGTTTTCCCGGTAATCCGTATTTGGT (site AATTATGCTGC)	0
AATTATGCATGGACCGGTTTTCCCGGTAATCCGTATTTGGT (site AATTATGCTTC)	0.0116
AATTGCTCATGGACCGGTTTTCCCGGTAATCCGTATTTGCC (site AATTGCTCTGG)	2.51
AATTGGGCATGGACCGGTTTTCCCGGTAATCCGTATTTGAA (site AATTGGGCTTT)	0.399
AATTTGTCATGGACCGGTTTTCCCGGTAATCCGTATTTGAC (site AATATGTCTGT)	0
AATTTGTCATGGACCGGTTTTCCCGGTAATCCGTATTTGAC (site AATCTGTCTGT)	0
AATTTGTCATGGACCGGTTTTCCCGGTAATCCGTATTTGAC (site AATGTGTCTGT)	0
AATTTGTCATGGACCGGTTTTCCCGGTAATCCGTATTTGAC (site AATTTGTCTGT)	0
ACAAAATCATGGACCGGTTTTCCCGGTAATCCGTATTTGCA (site ACAAAATCTTG)	1.3
ACAAAATCATGGACCGGTTTTCCCGGTAATCCGTATTTGCA (site ACAGTATCTTG)	1.45
ACAAAGGCATGGACCGGTTTTCCCGGTAATCCGTATTTGCT (site AAAAAGGCTAG)	0
ACAAAGGCATGGACCGGTTTTCCCGGTAATCCGTATTTGCT (site ACAAAGGCTAG)	2.57
ACAAAGGCATGGACCGGTTTTCCCGGTAATCCGTATTTGCT (site AGAAAGGCTAG)	0
ACAAAGGCATGGACCGGTTTTCCCGGTAATCCGTATTTGCT (site ATAAAGGCTAG)	1.17
ACAACTACATGGACCGGTTTTCCCGGTAATCCGTATTTGTG (site ACAACTACTCA)	0.844
ACAACTACATGGACCGGTTTTCCCGGTAATCCGTATTTGTG (site ACACCTACTCA)	0.0441

Sequence	recombinant UMI read abundance (log10)
ACAACTACATGGACCGGTTTTCCCGGTAATCCGTATTTGTG (site ACAGCTACTCA)	0.0923
ACAACTACATGGACCGGTTTTCCCGGTAATCCGTATTTGTG (site ACATCTACTCA)	0.146
ACAAGAACATGGACCGGTTTTCCCGGTAATCCGTATTTGAG (site ACAAGAACTCT)	2.72
ACAAGAACATGGACCGGTTTTCCCGGTAATCCGTATTTGAG (site ACCAGAACTCT)	0.645
ACAAGAACATGGACCGGTTTTCCCGGTAATCCGTATTTGAG (site ACGAGAACTCT)	1.41
ACAAGAACATGGACCGGTTTTCCCGGTAATCCGTATTTGAG (site ACTAGAACTCT)	0.755
ACAAGGCCATGGACCGGTTTTCCCGGTAATCCGTATTTGAC (site AAAAGGCCTGT)	0
ACAAGGCCATGGACCGGTTTTCCCGGTAATCCGTATTTGAC (site ACAAGGCCTGT)	0.512
ACAAGGCCATGGACCGGTTTTCCCGGTAATCCGTATTTGAC (site AGAAGGCCTGT)	0
ACAAGGCCATGGACCGGTTTTCCCGGTAATCCGTATTTGAC (site ATAAGGCCTGT)	1.34
ACAAGTGCATGGACCGGTTTTCCCGGTAATCCGTATTTGGT (site ACAAGTGCTAC)	2.04
ACAAGTGCATGGACCGGTTTTCCCGGTAATCCGTATTTGGT (site ACCAGTGCTAC)	0.897
ACAAGTGCATGGACCGGTTTTCCCGGTAATCCGTATTTGGT (site ACGAGTGCTAC)	1.09
ACAAGTGCATGGACCGGTTTTCCCGGTAATCCGTATTTGGT (site ACTAGTGCTAC)	1.16
ACAATATCATGGACCGGTTTTCCCGGTAATCCGTATTTGCT (site ACAATATCTAG)	2.64
ACAATATCATGGACCGGTTTTCCCGGTAATCCGTATTTGCT (site ACAGTATCTTG)	0.278
